Laboratory results from paper PMC5994430, “Mitochondrial Delivery of Phenol Substructure Triggers Mitochondrial Depolarization and Apoptosis of Cancer Cells” (Frontiers in Pharmacology, 2018).

Legend:
[1] = test system: human cancer cell lines and normal cells; test: Extracellular LDH release, panel of cancer cell lines and normal cells; type: cell-based; settings: 24 h, 0.1, 1 and 10 μM
Description: Human colon cancer HT29 cells, colon-derived normal fibroblast CCD-18Co cells, lung cancer A549 cells, normal human bronchial epithelial (immortalized with adenovirus 12-SV40 virus hybrid Ad12SV40) BEAS-2B cells, breast cancer MDA-MB-231 cells, normal breast epithelial MCF10A cells, human osteosarcoma U-2OS cells were purchased from ATCC (Manassas, VA, United States). Primary osteoblasts were generated as reported previously ([Buondonno et al., 2016]). HMM and HMC were primary cells stabilized in culture as described ([Aldieri et al., 2004]). The use of primary cells was approved by Ethical Committee of the San Luigi Gonzaga Hospital, Orbassano, (protocol #126/2016). […]
The extracellular release of LDH, considered an index of cell damage and necrosis, was measured spectrophotometrically, as reported ([Riganti et al., 2013b]). […] LDH activity was measured in the extracellular medium and in the cell lysate: 50 μl of extracellular medium or 5 μl of cell lysate were incubated at 37°C with 5 mM NADH. The reaction was started by adding 20 mM pyruvic acid and was monitored for 6 min, measuring absorbance at 340 nm using a Synergy HT Multi-Detection Microplate Reader (Bio-Tek Instruments, Winoosky, MT, United States). […] Both intracellular and extracellular enzyme activities were expressed as μmol NADH oxidized/min/dish. […] IC50 was calculated with the CompuSyn software^1. […]

[2] = test system: mitofusin 1 (MFN1) and mitofusin 2 (MFN2); test: qRT-PCR of mitofusin mRNA in A549 cells; type: cell-based, Human; settings: 0.1 μM, 4 h
Experimental: Supplementary Figure 4 Effects of TPP-derivatives on mitofusin 1 and mitofusin 2 expression.
A549 and BEAS-2B cells were incubated 4 h in fresh medium (ctrl) or with 0.1 µM of 1 and 2.
Expression of mitofusin 1 (MFN1) and mitofusin 2 (MFN2) mRNA was evaluated by qRT-PCR in
triplicates. Data are means ± SD (n=3).
(1 picture or pasted object on this page, not shown here)

caspase 3 = test: Caspase 3 activity in A549 cell lysates; type: cell-based, Human; settings: 0.1 μM, 24 h
Experimental: The activity of caspase 9 and 3 was measured by incubating 20 μg cell lysates with the respective fluorogenic substrates Ac-LEHD-AMC (LEHD-AMC) or DEVD-AMC (DEVD-AMC), as reported ([Pinzón-Daza et al., 2012]). Results were expressed as nmoles AMC/mg protein.
FIGURE 7 Effects of phenol TPP-derivatives on mitochondria-dependent apoptosis. A549 and BEAS-2B cells were incubated 24 h in fresh medium (ctrl) or in medium containing 0.1 μM of 1 or 2. (A,B) The activity of caspase 9 and 3 was measured fluorimetrically, in duplicates. Data are means ± SD (n = 3). For both panels: ^∗p < 0.001 vs. A549 ctrl cells; °p < 0.001 for BEAS-2B cells vs. the corresponding condition in A549 cells. (C,D) Cell cycle distribution, measured in duplicates. Data are means ± SD (n = 3). For both panels: ^∗p < 0.001 vs. A549 ctrl cells: °p < 0.001 for BEAS-2B cells vs. the corresponding condition in A549 cells. (E) Bright field microscope analysis of cells. Magnification: 60 × objective (0.52 numerical aperture); 10 × ocular lens. Bar: 20 μM. The micrographs are representative of three experiments with similar results.

[3] = test system: electron transport between complexes I and III; test: Electron transport chain in mitochondrial extracts of A549 cells; type: cell-based, Human; settings: 0.1 μM, 4 h
Experimental: The electron transport between complexes I and III was measured in mitochondrial extracts, immediately after extract thawing, as detailed earlier ([Jean et al., 2015]). In particular, 10 μl of not-sonicated mitochondrial samples were re-suspended in 0.59 ml buffer C (5 mM KH2PO4, 5 mM MgCl2, 5% w/v BSA) and transferred into a quartz spectrophotometer cuvette. Then 0.38 ml buffer D (25% w/v saponin, 50 mM KH2PO4, 5 mM MgCl2, 5% w/v BSA, 0.12 mM cytochrome c-oxidized form, 0.2 mM NaN3) was added for 5 min at room temperature. The reaction was started with 0.15 mM NADH and was followed for 5 min, reading the absorbance at 550 nm by a Lambda 3 spectrophotometer (PerkinElmer, Waltham, MA, United States). The results were expressed as nmoles reduced cytochrome c/min/mg mitochondrial proteins. […]
[t] […] (E,F) The electron transport was measured spectrophotometrically in duplicates. ATP levels in mitochondrial extracts was measured by a chemiluminescence-based assay, in duplicates. […] (G,H) ROS amount in mitochondrial extracts and mitochondrial damage were measured fluorimetrically, in duplicates. […] There were no statistically significant differences between untreated (ctrl) and compound 1/compound 2-treated BEAS-2B cells for all the parameters analyzed in this figure.

Row | Structure (SMILES) | release of LDH in the extracellular medium [1] | expression of mitofusin 1 (MFN1) and mitofusin 2 (MFN2) [2] | activity of caspase 3 (caspase 3) | rate of electron transport [3]
1 | CC(=O)Oc1ccc(C[P+](c2ccccc2)(c2ccccc2)c2ccccc2)cc1.[Br-] [Compound 1] | dose-dependent increase | no changes | strong activation | significant decrease
2 | O=C(Oc1ccc(C[P+](c2ccccc2)(c2ccccc2)c2ccccc2)cc1C(F)(F)F)c1ccccc1.[Br-] [Compound 2] | dose-dependent increase | no changes | strong activation | significant decrease
